According to ChEMBL document CHEMBL1201862, “PubChem BioAssay data set” (2004):
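48-hour exposure; five concentrations; linearly interpolated endpoints. GI50 = concentration required for 50% inhibition of growth.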 Calls of active or inactive are those of the source. No stated cut-off is given here; in the data, active = GI50 up to about 1.1 µM and inactive = higher.

Legend:
Test in all cases: NCI anticancer screen, dose series, 48 h
786-0 = test system: 786-0
A498 = test system: A498
HCC 2998 = test system: HCC 2998
HCT-15 = test system: HCT-15
HT-29 = test system: HT-29
IGROV-1 = test system: IGROV-1
LOX IMVI = test system: LOX IMVI
M14 = test system: M14
MDA-MB-435 = test system: MDA-MB-435
MOLT-4 = test system: MOLT-4
Malme-3M = test system: Malme-3M
OVCAR-3 = test system: OVCAR-3
OVCAR-5 = test system: OVCAR-5
OVCAR-8 = test system: OVCAR-8
SF-268 = test system: SF-268
SF-539 = test system: SF-539
SN12C = test system: SN12C
SNB-75 = test system: SNB-75
T47D = test system: T47D
TK-10 = test system: TK-10

SMILES	GI50 (786-0)	GI50 (A498)	GI50 (HCC 2998)	GI50 (HCT-15)	GI50 (HT-29)	GI50 (IGROV-1)	GI50 (LOX IMVI)	GI50 (M14)	GI50 (MDA-MB-435)	GI50 (MOLT-4)	GI50 (Malme-3M)	GI50 (OVCAR-3)	GI50 (OVCAR-5)	GI50 (OVCAR-8)	GI50 (SF-268)	GI50 (SF-539)	GI50 (SN12C)	GI50 (SNB-75)	GI50 (T47D)	GI50 (TK-10)
O=C(O)CCSc1nnc(COc2ccc(Cl)cc2)n1-c1ccccc1	> 100 µM (inactive)	> 100 µM (inactive)	> 100 µM (inactive)	> 100 µM	> 100 µM (inactive)	> 100 µM (inactive)	> 100 µM (inactive)	> 100 µM (inactive)	> 100 µM (inactive)	> 100 µM (inactive)	> 100 µM (inactive)	> 100 µM (inactive)	> 100 µM (inactive)	> 100 µM (inactive)	> 100 µM (inactive)	> 100 µM (inactive)	> 100 µM (inactive)	> 100 µM (inactive)	> 100 µM (inactive)	> 100 µM (inactive)
COC(=O)[C@]1(C)[C@H]2C[C@H]3O[C@H]4[C@H](O)[C@@H](O)OC(CC(O)C(C5=CC(=O)OC5)C(C5=CC(=O)OC5)C(O)CC56CCCCC7[C@@H](C)[C@H](C[C@H]8[C@](C)(C(=O)OC)[C@H](O)CC[C@]78C)O[C@H]([C@@H](O)[C@H](O)O5)[C@H]6O)(CCCCC([C@@H]3C)[C@]2(C)CC[C@@H]1O)[C@H]4O (stereo not given in full)	0.0318 µM (active)	0.0916 µM (active)	0.655 µM (active)	0.143 µM	0.157 µM (active)	0.0959 µM (active)	0.0993 µM (active)	0.332 µM (active)	0.247 µM (active)	< 0.0184 µM (active)	0.0989 µM (active)	0.103 µM (active)	0.592 µM (active)	0.188 µM (active)	< 0.0272 µM (active)	0.0394 µM (active)	< 0.021 µM (active)	0.129 µM (active)	0.299 µM (active)	< 0.0391 µM (active)
O=C1CCCC1CN1CCCC1 (stereo not given)	5.22 µM (inactive)	22.5 µM (inactive)	> 45.2 µM (inactive)	2 µM	23.2 µM (inactive)	10.6 µM (inactive)	8.75 µM (inactive)	1.67 µM (inactive)	13.1 µM (inactive)	0.206 µM (active)	2.04 µM (inactive)	14.2 µM (inactive)	18.3 µM (inactive)	17.3 µM (inactive)	21.6 µM (inactive)	18.8 µM (inactive)	17.7 µM (inactive)	17.1 µM (inactive)	2.75 µM (inactive)	12.5 µM (inactive)
O=C1C(CN2CCCCC2)CCC1CN1CCCCC1 (stereo not given)	19.5 µM (inactive)	15.2 µM (inactive)	> 44.7 µM (inactive)	20 µM	20.9 µM (inactive)	32.1 µM (inactive)	16 µM (inactive)	15.5 µM (inactive)	33 µM (inactive)	2.22 µM (inactive)	17.7 µM (inactive)	17.1 µM (inactive)	11.4 µM (inactive)	26.8 µM (inactive)	49.8 µM (inactive)	30.6 µM (inactive)	30.4 µM (inactive)	> 47.8 µM (inactive)	13.5 µM (inactive)	17.8 µM (inactive)
Oc1cc(-c2cccc(OC(F)(F)F)c2)nc2ccc(N3CCCC3)cc12	0.00014 µM (active)	0.000322 µM (active)	0.000547 µM (active)	0.0004 µM	0.000217 µM (active)	0.00131 µM (active)	0.000205 µM (active)	0.00012 µM (active)	< 0.0001 µM (active)	0.000335 µM (active)	0.000114 µM (active)	< 0.0001 µM (active)	0.000297 µM (active)	0.000426 µM (active)	0.000306 µM (active)	0.000147 µM (active)	0.00041 µM (active)	< 0.0001 µM (active)	26.3 µM (inactive)	0.00457 µM (active)
CC(=O)NC1C(OCC(=O)NC(C)C(=O)NC(CCC(=O)NCCCCCNc2ccc([N+](=O)[O-])c3[nH]c4ccccc4c(=O)c23)C(N)=O)C(O)C(CO)OC1(C)OCc1ccccc1 (stereo not given)	13 µM (inactive)	> 50 µM (inactive)	> 50 µM (inactive)	> 50 µM	38.6 µM (inactive)	> 50 µM (inactive)	> 50 µM (inactive)	> 50 µM (inactive)	> 50 µM (inactive)	13.3 µM (inactive)	12 µM (inactive)	> 50 µM (inactive)	> 50 µM (inactive)	> 50 µM (inactive)	14.5 µM (inactive)	> 50 µM (inactive)	19.6 µM (inactive)	24.8 µM (inactive)	> 50 µM (inactive)	24 µM (inactive)
CC(C)OC(=O)C(NC(=O)C(CC(=O)OCc1ccccc1)NC(=O)OCc1ccccc1)NC(=O)C1C(C)(C)CCC1(C)C (stereo not given)	2.22 µM (inactive)	2.5 µM (inactive)	24.9 µM (inactive)	11 µM	3.58 µM (inactive)	13.7 µM (inactive)	4.56 µM (inactive)	21.5 µM (inactive)	23.8 µM (inactive)	8.04 µM (inactive)	18 µM (inactive)	2.77 µM (inactive)	14.8 µM (inactive)	2 µM (inactive)	15 µM (inactive)	2.81 µM (inactive)	3.84 µM (inactive)	2.68 µM (inactive)	26.5 µM (inactive)	18.8 µM (inactive)
CC(C)Nc1[nH]c(C(=O)c2ccccc2)c(N)c1C(=S)Nc1ccccc1	36.5 µM (inactive)	77.6 µM (inactive)	21.8 µM (inactive)	32.8 µM	27.9 µM (inactive)	> 100 µM (inactive)	23.2 µM (inactive)	23.2 µM (inactive)	30.8 µM (inactive)	80.9 µM (inactive)	19.3 µM (inactive)	> 100 µM (inactive)	> 100 µM (inactive)	84.7 µM (inactive)	67.8 µM (inactive)	> 100 µM (inactive)	> 100 µM (inactive)	69.3 µM (inactive)	69.8 µM (inactive)	57.1 µM (inactive)
O=C(O)[C@H]1NC[C@H]2C(Br)=NO[C@@H]12	> 100 µM (inactive)	> 100 µM (inactive)	> 100 µM (inactive)	> 100 µM	> 100 µM (inactive)	> 100 µM (inactive)	> 100 µM (inactive)	> 100 µM (inactive)	> 100 µM (inactive)	> 100 µM (inactive)	> 100 µM (inactive)	> 100 µM (inactive)	> 100 µM (inactive)	> 100 µM (inactive)	> 100 µM (inactive)	> 100 µM (inactive)	> 100 µM (inactive)	> 100 µM (inactive)	> 100 µM (inactive)	> 100 µM (inactive)
COc1cc(/C=C/C(=O)O)ccc1OS(=O)(=O)O	> 100 µM (inactive)	> 100 µM (inactive)	> 100 µM (inactive)	> 100 µM	> 100 µM (inactive)	> 100 µM (inactive)	> 100 µM (inactive)	> 100 µM (inactive)	> 100 µM (inactive)	> 100 µM (inactive)	> 100 µM (inactive)	> 100 µM (inactive)	> 100 µM (inactive)	> 100 µM (inactive)	> 100 µM (inactive)	> 100 µM (inactive)	> 100 µM (inactive)	> 100 µM (inactive)	> 100 µM (inactive)	> 100 µM (inactive)
CC(C)C(=O)CC(Sc1ccc(N)cc1)c1ccccc1 (stereo not given)	28.8 µM (inactive)	36.2 µM (inactive)	24.7 µM (inactive)	27.4 µM	27.5 µM (inactive)	44.1 µM (inactive)	16.6 µM (inactive)	30.4 µM (inactive)	13.6 µM (inactive)	25.1 µM (inactive)	35.1 µM (inactive)	27.6 µM (inactive)	29.4 µM (inactive)	25.6 µM (inactive)	28.5 µM (inactive)	30.5 µM (inactive)	28.1 µM (inactive)	32.6 µM (inactive)	21.9 µM (inactive)	69.8 µM (inactive)
CC1CNC(c2ccc(CN3CCC(C4CCN(Cc5ccc(C6=NC(C)CN6)cc5)CC4)CC3)cc2)=N1 (stereo not given)	19.1 µM (inactive)	29.2 µM (inactive)	14.6 µM (inactive)	27.5 µM	18.5 µM (inactive)	37.2 µM (inactive)	22.7 µM (inactive)	20.2 µM (inactive)	20.8 µM (inactive)	19.7 µM (inactive)	23.9 µM (inactive)	17.5 µM (inactive)	24.9 µM (inactive)	29.6 µM (inactive)	22.4 µM (inactive)	20.3 µM (inactive)	20.1 µM (inactive)	16.6 µM (inactive)	19.5 µM (inactive)	22.4 µM (inactive)
O=C1/C(=C\c2cccc(Oc3ccccc3)c2)S(=O)(=O)C(c2ccccc2)N1c1cccc(Cl)c1 (stereo not given)	46.5 µM (inactive)	> 100 µM (inactive)	> 100 µM (inactive)	40.6 µM	30.1 µM (inactive)	38.9 µM (inactive)	19 µM (inactive)	40.8 µM (inactive)	38.5 µM (inactive)	30.1 µM (inactive)	> 100 µM (inactive)	36.2 µM (inactive)	> 100 µM (inactive)	25.2 µM (inactive)	39.2 µM (inactive)	36.1 µM (inactive)	54.8 µM (inactive)	> 100 µM (inactive)	46.8 µM (inactive)	> 100 µM (inactive)
c1ccc(CNc2c3c(nc4ccccc24)CCC3)cc1	13.4 µM (inactive)	11.7 µM (inactive)	13.5 µM (inactive)	18.9 µM	5.52 µM (inactive)	15.8 µM (inactive)	14 µM (inactive)	13.7 µM (inactive)	15.3 µM (inactive)	13.1 µM (inactive)	17.3 µM (inactive)	12.2 µM (inactive)	15.5 µM (inactive)	14.1 µM (inactive)	21.7 µM (inactive)	14.5 µM (inactive)	16.4 µM (inactive)	18 µM (inactive)	12.7 µM (inactive)	13 µM (inactive)
